This passage reports TGI results from PubChem BioAssay (NCI).

What all share (test): NCI tumour cell line growth inhibition, 48 h
Experiment [1] concerns 786-0 renal.
Experiment [2] concerns COLO 205 colon.
The subject of experiment [3] is LOX IMVI melanoma.
Experiment [4] deals with MALME-3M melanoma.
The test system of experiment [5] is MCF7 breast.
Experiment [6] concerns NCI/ADR-RES ovarian.
Experiment [7] concerns SNB-75 CNS.
Experiment [8] concerns T-47D breast.
In experiment [9] the test system is UACC-62 melanoma.
Experiment [10] has as its system UACC-257 melanoma.

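The compound was tested at five concentrations on cells cultured in 96-well plates, with a 48-hour exposure period. The concentration for full growth arrest is given as TGI.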

As for `COc1cc(/C=C\c2ccc(SC)cc2)cc(OC)c1OC`, the TGI in experiment [1] was 18.5 µM; in [2] it was 0.108 µM; in experiment [3], 45.2 µM; in experiment [4], more than 100 µM; in experiment [5], more than 100 µM; in [6], more than 100 µM. Moreover, the TGI in experiment [7], in experiment [8] and in experiment [9] was more than 100 µM throughout.

Take `COCOc1cc(OC)ccc1C=O`: the TGI in [1] is more than 100 µM; in [2], 54.2 µM; in [3], more than 100 µM; in experiment [4] it was more than 100 µM; in experiment [5] it was more than 100 µM; in experiment [6], 52.1 µM. The TGI in experiment [7], in experiment [8], in experiment [10] and in [9] was more than 100 µM throughout.

`COc1cc(O)c(C(=O)/C=C/c2ccc(O)cc2)cc1Oc1ccc(C(=O)/C=C/c2ccc(O)cc2)c(O)c1`: the TGI turned out to be 5.73 µM in [1]; 3.58 µM in experiment [2]; 10.7 µM in experiment [3]; 6.37 µM in experiment [4]; 13.5 µM in [5]; 9.55 µM in [6]. The TGI in experiment [7] is 7.5 µM; in experiment [8], 8.86 µM; in experiment [10], 21.7 µM; in experiment [9], 4.52 µM.

As to `Cc1cc(SCC(=O)c2ccc(Br)cc2)cc(C)[o+]1`, the TGI is more than 100 µM in [1]; 83.7 µM in experiment [2]; more than 100 µM in experiment [3]; 97.9 µM in [4]; 38.2 µM in [5]; 88.3 µM in experiment [6]. Also, the TGI in [7] was 56.9 µM; in [8], 48.8 µM; in [10], 65.9 µM; in experiment [9], more than 100 µM.

Consider `COc1ccccc1NC(=S)N/N=C(/c1ccccc1)c1ccccn1`, for which the TGI amounted to 18.7 µM in experiment [1]; 0.59 µM in experiment [2]; 15.7 µM in [3]; 17.3 µM in experiment [4]; 3.62 µM in [5]; 11.3 µM in [6]. In addition, the TGI in experiment [7] was 24.7 µM; in experiment [8], 27.2 µM; in [10], 1.13 µM; in experiment [9], 9.23 µM.

As for `COC(=O)CCCc1ccc2c(c1)CCC2`, the TGI in experiment [1], in [2], in experiment [3], in experiment [4], in experiment [5] and in [6] was more than 100 µM each time. The TGI in experiment [7], in [8], in experiment [10] and in experiment [9] was more than 100 µM each time.

Turning to `COc1ccc2c(c1)CCC(CN1CCN(CCOC(c3ccc(F)cc3)c3ccc(F)cc3)CC1)=C2`, the TGI in [1] worked out at 27.2 µM; in [2], 10.4 µM; in experiment [3], 30.3 µM; in experiment [4] it was 27.9 µM; in experiment [5], 71.9 µM; in [6], 38.4 µM. For the same compound, the TGI was more than 100 µM in experiment [7], more than 100 µM in [8], 28.1 µM in experiment [10] and 49 µM in experiment [9].

With `CC(C)(C)[C@@H]1NC(=O)CN1C(=O)OCc1ccccc1`, the TGI in [1], in experiment [2], in experiment [3], in experiment [4], in [5] and in experiment [6] was more than 100 µM throughout. Besides, the TGI in [7], in experiment [8], in experiment [10] and in experiment [9] was more than 100 µM throughout.

For the compound `CCCCc1ccc(N2C(=O)c3cc(C)cnc3S2(=O)=O)cc1`, the TGI in experiment [1], in experiment [2], in experiment [3], in experiment [4], in [5] and in [6] was more than 100 µM in each case. Further, the TGI in [7] and in [8] was more than 100 µM throughout.

On to `CCC1OC2C(CC=C(C)C)=C3OC(C)(O)C(C)(CC)C(O)C3=C3OC(=O)C=C1C32` (stereo not given), for which the TGI in [1] was more than 100 µM; in [2] it was more than 100 µM; in experiment [3], 35.9 µM; in experiment [5] it was more than 100 µM; in [6], more than 100 µM; in [8], more than 100 µM. The TGI in experiment [10] and in [9] was more than 100 µM in each case.

Take `CC1CCN(c2nnc(Cl)cc2C(=O)c2ccccc2)CC1`: the TGI is more than 100 µM in experiment [1]; 46.9 µM in experiment [2]; more than 100 µM in [3]; 36.9 µM in experiment [5]; more than 100 µM in experiment [6]; 70 µM in experiment [7]. Moreover, the TGI in experiment [8] was more than 100 µM; in [10] it was 63.2 µM; in [9] it was more than 100 µM.

For the compound `C=C1C(=O)O[C@H]2C1C[C@@H](O)[C@@]1(C)OC1CC[C@@]1(C)O[C@H]21` (stereo not given in full), the TGI in experiment [1] is 40.9 µM; in experiment [2], 25.8 µM; in experiment [3] it was 27.5 µM; in experiment [4] it was 29.2 µM; in experiment [5], 29 µM; in [6], 64 µM. Besides, the TGI in experiment [7] was more than 100 µM; in [10] it was 42.3 µM; in experiment [9], 31.4 µM.

Turning to `COC(=O)CSc1[nH]c2nc(C)nc(Nc3ccccc3)c2c1C#N`, the TGI in experiment [1], in [2], in experiment [3], in [4], in experiment [5] and in experiment [7] was more than 10 µM in each case. Besides, the TGI in experiment [8], in [10] and in experiment [9] was more than 10 µM in each case.

With `CC1(C(O)c2ccccc2)CN(C(C)(C)C)C(=O)/C1=C\Sc1ccccc1` (stereo not given), the TGI in experiment [1] was more than 100 µM; in experiment [2], 50.7 µM; in [3], 32.1 µM; in [5] it was more than 100 µM; in [6], more than 100 µM; in [8], more than 100 µM. Further, the TGI in [10] is 95.2 µM; in experiment [9] it was more than 100 µM.
